Patent US6369101B1, “Therapeutic method to treat herpes virus infection” (Regents of the University of Minnesota, priority 1999, dated 2002)
≈ marks a conversion by molar mass, not a printed value.

Tests used:
Daudi cells = assay: CC50 in Daudi cells (Table 3); type: cell-based; conditions: Daudi cells, Epstein-Barr Virus section of Table 3
Procedure: Raji is a Burkitt's lymphoma cell line containing 60 EBV genome/cell, and was the primary cell used for screening antiviral activity against EBV early antigen (EA) expression. Daudi is a low level producer that contains 152 EBV genome copies/cell. It spontaneously expresses EBV EA in 0.25-0.5% of the cells. It was used in follow-up studies to confirm activity. […] All cell lines were maintained in RPMI-1640 medium supplemented with 10% FCS, L-glutamine and 100 μg/ml gentamicin. The cultures were fed twice weekly and the cell concentration was adjusted to 3×10^5/ml. The cells were kept at 37° C. in humidified atmosphere with 5% CO2.

Epstein-Barr Virus = assay: VCA expression in EBV-infected Daudi cells; conditions: Epstein-Barr Virus, Daudi cells, VCA; test compounds in DMSO
Source text: Raji is a Burkitt's lymphoma cell line containing 60 EBV genome/cell, and was the primary cell used for screening antiviral activity against EBV early antigen (EA) expression. […] It spontaneously expresses EBV EA in 0.25-0.5% of the cells. It was used in follow-up studies to confirm activity. These cell lines respond to superinfection by EBV by expressing EA-diffuse component EA (D), EA restricted component EA (R), and viral capsid antigen (VCA). […] The cultures were fed twice weekly and the cell concentration was adjusted to 3×10^5/ml. The cells were kept at 37° C. in humidified atmosphere with 5% CO2.
Cells were infected with the P3HR-1 strain of HBV and the test compound was added after adsorption (45 minutes at 37° C.) and washing of the cell cultures. The cultures were incubated for two days in complete medium to allow viral gene expression. Following the 48 hours of incubation, the numbers of cells of each sample was counted and smears were made. Monoclonal antibodies to the different EA components and VCA were then added to the cells and then incubated and washed. This is followed by a fluorescein conjugated rabbit anti-mouse IgG antibody, and the number of fluorescence cells in the smear were counted. The total number of cells in the cultures positive for EA or VCA were then calculated and compared.

[1] = system: Human laryngeal epithelial carcinoma cells (HEp-2); assay: Cytotoxicity in HEp-2 cells; type: cell-based
Human Cytomegalovirus = assay: CPE inhibition in stationary cells (visual), HCMV in HFF cells; type: cell-based; conditions: test compounds in DMSO
Mouse Cytomegalovirus = assay: CPE inhibition in stationary cells (visual), MCMV in MEF cells; type: cell-based; conditions: test compounds in DMSO
MEF cells = assay: CC50 in MEF cells (Table 3); type: cell-based; conditions: Mouse Cytomegalovirus section of Table 3
Varicella-Zoster Virus = assay: CPE inhibition in stationary cells (visual), VZV in HFF cells; type: cell-based; conditions: test compounds in DMSO
HSV-2 (MS Strain) [2] = assay: Cutaneous HSV-2 infection in rats, topical ointment; type: in vivo, rat; conditions: topical 2% ointment twice daily for 3 days
HSV-2 (MS strain) [3] = assay: Vaginal HSV-2 (MS) infection in guinea pigs, topical ointment; type: in vivo, guinea pig
Procedure: Female Hartley outbred guinea pigs 26 days old and weighing approximately 350 to 400 grams each were obtained from Charles River Breeding Labs, Wilmington, Mass. The animals were housed singly and given feed and water ad lib.
2% Betulin and allobetulin ointment were prepared aseptically in polyethylene glycol (PEG) as ointment base and stored at room temperature until used.
Female guinea pigs weighing 200 g were inoculated intravaginally with HSV-2 (MS strain). One hour before viral inoculation the animals were swabbed using Dacron-polyester tipped applicator moistened in sterile saline to remove vaginal secretions. The animals were then infected with one drop of HSV-2 suspension containing 1×10^4 pfu, and the surface of the vaginal mucosa was slightly scarified with a sterile Greer Derma Pick® Skin Testing System (Greer Labs, Lenoir, N.C.).
The treatment of infected guinea pigs was started 18 hours after infection and continued twice daily for 3 days. […] Each experiment included uninfected control, infected and placebo controls. […] The swabs were stored at −80° C. until analyzed. The virus content of the specimens was measured by plaque assay in HEp-2 cells and the mean virus titer was calculated. […] The variable assessed was typical HSV vesicle formation, size, number and whether confluent, induration at the site of infection and scab formation.

Row | Compound | CC50 (Daudi cells) [µg/mL] | EC50 (Epstein-Barr Virus) [µg/mL] | cytotoxicity (in words) ([1]; HEp-2 (human epithelial) cells) | Cell Cytotoxicity ([1]; HEp-2 cells, conc. per compound (ng/ml)) | EC50 (Human Cytomegalovirus) [µg/mL] | EC50 (Mouse Cytomegalovirus) [µg/mL] | CC50 (MEF cells) [µg/mL] | EC50 (Varicella-Zoster Virus) [µg/mL] | effect on cutaneous HSV-2 infection (in words) (HSV-2 (MS Strain) [2]) | effect on vaginal HSV-2 infection (in words) (HSV-2 (MS strain) [3]; 2% ointment twice daily for 3 days beginning 18 hours after infection) | typical lesions and virus content in the infected vaginal area (HSV-2 (MS strain) [3]; by 6 to 8 days, 2% ointment twice daily for 3 days)
1 | acycloguanosine [Acyclovir, reference compound] | >100 | 1.4 |  |  |  |  |  |  |  |  | 
2 | C=C(C)[C@@H]1CC[C@]2(CO)CC[C@]3(C)[C@H](CC[C@@H]4[C@@]5(C)CC[C@H](O)C(C)(C)[C@@H]5CC[C@]43C)[C@@H]12 [Betulin, lup-20(29)-ene-3β, 28-diol, reference compound] |  |  | less cytotoxicity | − | 0.0029 (≈ 0.00655 µM) | >0.02 | 0.08 (≈ 0.181 µM) | >0.004 | significant effect | Significant effect | decreased significantly
